Read-outs that look alike come from different tables or passages of the source.
What was measured:
human CB1 receptors = target: T1, human CB1 receptors (Homo sapiens, UniProt P21554); experiment: cAMP assay; format: cell-based
T1 construct: expressed in transfected cells; host or cells: CHO cells
Method in brief: (§1)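 CHO cells expressing human CB1 or CB2 were preincubated 30 min at 30 °C in Krebs Ringer bicarbonate buffer with 1 mM IBMX, then exposed to compounds for 30 min at 30 °C. cAMP was measured by time-resolved FRET against a cAMP standard curve, and EC50 values were derived.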

human CB2 receptors = target: T2, human CB2 receptors (Homo sapiens, UniProt P34972); experiment: cAMP assay; format: cell-based
T2 construct: expressed in transfected cells; host or cells: CHO cells
Method in brief: as §1

[1] = functional cAMP assay, CHO cells expressing human CB2, read-out: human CB2 EC50

T2 sequence (P34972 whole entry): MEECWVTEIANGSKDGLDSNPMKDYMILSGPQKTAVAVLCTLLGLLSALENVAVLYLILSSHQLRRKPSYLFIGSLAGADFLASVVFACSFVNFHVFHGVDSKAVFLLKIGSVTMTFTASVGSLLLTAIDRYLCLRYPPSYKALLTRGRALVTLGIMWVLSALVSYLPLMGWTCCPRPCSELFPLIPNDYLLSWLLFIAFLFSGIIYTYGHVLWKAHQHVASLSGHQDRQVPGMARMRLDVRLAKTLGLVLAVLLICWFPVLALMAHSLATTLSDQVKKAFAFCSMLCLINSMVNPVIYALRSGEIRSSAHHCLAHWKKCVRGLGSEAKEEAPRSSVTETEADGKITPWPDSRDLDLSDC
T1 sequence (P21554 whole entry): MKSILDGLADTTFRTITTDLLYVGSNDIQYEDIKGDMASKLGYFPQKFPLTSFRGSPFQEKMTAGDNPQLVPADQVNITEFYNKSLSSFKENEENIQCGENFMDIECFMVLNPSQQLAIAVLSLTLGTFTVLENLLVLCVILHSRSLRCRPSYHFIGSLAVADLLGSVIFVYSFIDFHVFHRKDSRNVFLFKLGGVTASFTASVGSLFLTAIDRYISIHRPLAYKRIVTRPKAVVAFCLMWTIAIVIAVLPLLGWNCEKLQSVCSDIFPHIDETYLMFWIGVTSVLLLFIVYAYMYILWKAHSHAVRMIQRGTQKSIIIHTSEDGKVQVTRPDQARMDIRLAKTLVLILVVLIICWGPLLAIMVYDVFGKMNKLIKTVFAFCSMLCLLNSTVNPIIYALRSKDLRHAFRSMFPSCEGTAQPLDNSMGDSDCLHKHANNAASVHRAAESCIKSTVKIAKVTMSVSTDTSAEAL

| Compound | EC50 (human CB1 receptors) [nM] | EC50 (human CB2 receptors) [nM] | EC50 (human CB2 receptors; [1]) [nM] |
| --- | --- | --- | --- |
| Cn1nnnc1Cn1nc2nc(C(C)(C)C)nc(N3CC[C@@H](O)C3)c2n1 [Example 113, (R)-1-[5-tert-Butyl-2-(1-methyl-1H-tetrazol-5-ylmethyl)-2H-[1,2,3]triazolo[4,5-d]pyrimidin-7-yl]-pyrrolidin-3-ol] | > 10000 | 1660 |  |
| Cn1nnnc1Cn1nc2nc(C(C)(C)C)nc(N3CCC(O)C3)c2n1 (centres unmarked) [Example 114, 1-[5-tert-Butyl-2-(1-methyl-1H-tetrazol-5-ylmethyl)-2H-[1,2,3]triazolo[4,5-d]pyrimidin-7-yl]-pyrrolidin-3-ol] | > 10000 | 164 |  |
| C[C@H](Oc1nc(N2CCC(F)(F)C2)c2nn(Cc3ccccc3C(F)(F)F)nc2n1)C(F)(F)F [Example 115, 7-(3,3-Difluoro-pyrrolidin-1-yl)-2-(2-trifluoromethyl-benzyl)-5-((S)-2,2,2-trifluoro-1-methyl-ethoxy)-2H-[1,2,3]triazolo[4,5-d]pyrimidine] | > 10000 | 31.2 |  |
| C[C@H](Oc1nc(N2CCC(F)(F)C2)c2nn(Cc3ccccc3S(C)(=O)=O)nc2n1)C(F)(F)F [Example 116, 7-(3,3-Difluoro-pyrrolidin-1-yl)-2-(2-methanesulfonyl-benzyl)-5-((S)-2,2,2-trifluoro-1-methyl-ethoxy)-2H-[1,2,3]triazolo[4,5-d]pyrimidine] | > 10000 | 23.1 |  |
| C[C@H](Oc1nc(N2CCC(F)(F)C2)c2nn(Cc3ncccc3Cl)nc2n1)C(F)(F)F [Example 117, 2-(3-Chloro-pyridin-2-ylmethyl)-7-(3,3-difluoro-pyrrolidin-1-yl)-5-((S)-2,2,2-trifluoro-1-methyl-ethoxy)-2H-[1,2,3]triazolo[4,5-d]pyrimidine] | > 10000 | 21.2 |  |
| Cc1nnc(Cn2nc3nc(O[C@@H](C)C(F)(F)F)nc(N4CCC(F)(F)C4)c3n2)o1 [Example 118, 7-(3,3-Difluoro-pyrrolidin-1-yl)-2-(5-methyl-[1,3,4]oxadiazol-2-ylmethyl)-5-((S)-2,2,2-trifluoro-1-methyl-ethoxy)-2H-[1,2,3]triazolo[4,5-d]pyrimidine] | > 10000 |  | 441 |
| Cc1noc(Cn2nc3nc(O[C@@H](C)C(F)(F)F)nc(N4CCC(F)(F)C4)c3n2)n1 [Example 119, 7-(3,3-Difluoro-pyrrolidin-1-yl)-2-(3-methyl-[1,2,4]oxadiazol-5-ylmethyl)-5-((S)-2,2,2-trifluoro-1-methyl-ethoxy)-2H-[1,2,3]triazolo[4,5-d]pyrimidine] | > 10000 |  | 439 |
| C[C@H](Oc1nc(N2CCC(F)(F)C2)c2nn(Cc3nnnn3C)nc2n1)C(F)(F)F [Example 120, 7-(3,3-Difluoro-pyrrolidin-1-yl)-2-(1-methyl-1H-tetrazol-5-ylmethyl)-5-((S)-2,2,2-trifluoro-1-methyl-ethoxy)-2H-[1,2,3]triazolo[4,5-d]pyrimidine] | > 10000 | 69.4 |  |
| Cc1nonc1Cn1nc2nc(O[C@@H](C)C(F)(F)F)nc(N3CCC(F)(F)C3)c2n1 [Example 121, 7-(3,3-Difluoro-pyrrolidin-1-yl)-2-(4-methyl-furazan-3-ylmethyl)-5-((S)-2,2,2-trifluoro-1-methyl-ethoxy)-2H-[1,2,3]triazolo[4,5-d]pyrimidine] | > 10000 | 7.5 |  |
| C[C@H](Oc1nc(N2CCC(F)(F)C2)c2nn(CCC(F)(F)F)nc2n1)C(F)(F)F [Example 122, 7-(3,3-Difluoro-pyrrolidin-1-yl)-5-((S)-2,2,2-trifluoro-1-methyl-ethoxy)-2-(3,3,3-trifluoro-propyl)-2H-[1,2,3]triazolo[4,5-d]pyrimidine] | > 10000 | 8.4 |  |
| C[C@H](Oc1nc(N2CCC(F)(F)C2)c2nn(Cc3nnnn3C3CC3)nc2n1)C(F)(F)F [Example 123, 2-(1-Cyclopropyl-1H-tetrazol-5-ylmethyl)-7-(3,3-difluoro-pyrrolidin-1-yl)-5-((S)-2,2,2-trifluoro-1-methyl-ethoxy)-2H-[1,2,3]triazolo[4,5-d]pyrimidine] | > 10000 | 49.3 |  |
| CC(C)(C)c1nc(N2CC[C@](C)(O)C2)c2nn(Cc3ccccc3Cl)nc2n1 [Example 124-a, (S)-1-[5-tert-Butyl-2-(2-chloro-benzyl)-2H-[1,2,3]triazolo[4,5-d]pyrimidin-7-yl]-3-methyl-pyrrolidin-3-ol] | > 10000 | 2.5 |  |
| CC(C)(C)c1nc(N2CC[C@@](C)(O)C2)c2nn(Cc3ccccc3Cl)nc2n1 [Example 124-b, (R)-1-[5-tert-Butyl-2-(2-chloro-benzyl)-2H-[1,2,3]triazolo[4,5-d]pyrimidin-7-yl]-3-methyl-pyrrolidin-3-ol] | > 10000 | 6.8 |  |
| CC(C)(C)c1nc(N2CC[C@](C)(O)C2)c2nn(Cc3ccccc3C(F)(F)F)nc2n1 [Example 125-a, (S)-1-[5-tert-Butyl-2-(2-trifluoromethyl-benzyl)-2H-[1,2,3]triazolo[4,5-d]pyrimidin-7-yl]-3-methyl-pyrrolidin-3-ol] | 398 | 0.4 |  |
| CC(C)(C)c1nc(N2CC[C@@](C)(O)C2)c2nn(Cc3ccccc3C(F)(F)F)nc2n1 [Example 125-b, (R)-1-[5-tert-Butyl-2-(2-trifluoromethyl-benzyl)-2H-[1,2,3]triazolo[4,5-d]pyrimidin-7-yl]-3-methyl-pyrrolidin-3-ol] | > 10000 | 3.7 |  |
| CC(C)(C)c1nc(N2CC[C@](C)(O)C2)c2nn(Cc3ccccc3S(C)(=O)=O)nc2n1 [Example 126-a, (S)-1-[5-tert-Butyl-2-(2-methanesulfonyl-benzyl)-2H-[1,2,3]triazolo[4,5-d]pyrimidin-7-yl]-3-methyl-pyrrolidin-3-ol] | > 10000 | 10.6 |  |
| CC(C)(C)c1nc(N2CC[C@@](C)(O)C2)c2nn(Cc3ccccc3S(C)(=O)=O)nc2n1 [Example 126-b, (R)-1-[5-tert-Butyl-2-(2-methanesulfonyl-benzyl)-2H-[1,2,3]triazolo[4,5-d]pyrimidin-7-yl]-3-methyl-pyrrolidin-3-ol] | > 10000 | 24 |  |
| CC(C)(C)c1nc(N2CC[C@](C)(O)C2)c2nn(Cc3ncccc3Cl)nc2n1 [Example 127-a, (S)-1-[5-tert-Butyl-2-(3-chloro-pyridin-2-ylmethyl)-2H-[1,2,3]triazolo[4,5-d]pyrimidin-7-yl]-3-methyl-pyrrolidin-3-ol] | 757 | 5.1 |  |
| CC(C)(C)c1nc(N2CC[C@@](C)(O)C2)c2nn(Cc3ncccc3Cl)nc2n1 [Example 127-b, (R)-1-[5-tert-Butyl-2-(3-chloro-pyridin-2-ylmethyl)-2H-[1,2,3]triazolo[4,5-d]pyrimidin-7-yl]-3-methyl-pyrrolidin-3-ol] | 609 | 11.9 |  |
| Cc1nnc(Cn2nc3nc(C(C)(C)C)nc(N4CC[C@](C)(O)C4)c3n2)o1 [Example 128-a, (S)-1-[5-tert-Butyl-2-(5-methyl-[1,3,4]oxadiazol-2-ylmethyl)-2H-[1,2,3]triazolo[4,5-d]pyrimidin-7-yl]-3-methyl-pyrrolidin-3-ol] | > 10000 | 70.2 |  |
| Cc1nnc(Cn2nc3nc(C(C)(C)C)nc(N4CC[C@@](C)(O)C4)c3n2)o1 [Example 128-b, (R)-1-[5-tert-Butyl-2-(5-methyl-[1,3,4]oxadiazol-2-ylmethyl)-2H-[1,2,3]triazolo[4,5-d]pyrimidin-7-yl]-3-methyl-pyrrolidin-3-ol] | > 10000 | 789 |  |
| Cc1noc(Cn2nc3nc(C(C)(C)C)nc(N4CC[C@](C)(O)C4)c3n2)n1 [Example 129-a, (S)-1-[5-tert-Butyl-2-(3-methyl-[1,2,4]oxadiazol-5-ylmethyl)-2H-[1,2,3]triazolo[4,5-d]pyrimidin-7-yl]-3-methyl-pyrrolidin-3-ol] | > 10000 |  | 197 |
| Cc1noc(Cn2nc3nc(C(C)(C)C)nc(N4CC[C@@](C)(O)C4)c3n2)n1 [Example 129-b, (R)-1-[5-tert-Butyl-2-(3-methyl-[1,2,4]oxadiazol-5-ylmethyl)-2H-[1,2,3]triazolo[4,5-d]pyrimidin-7-yl]-3-methyl-pyrrolidin-3-ol] | > 10000 |  | 316 |
| Cn1nnnc1Cn1nc2nc(C(C)(C)C)nc(N3CC[C@](C)(O)C3)c2n1 [Example 130-a, (S)-1-[5-tert-Butyl-2-(1-methyl-1H-tetrazol-5-ylmethyl)-2H-[1,2,3]triazolo[4,5-d]pyrimidin-7-yl]-3-methyl-pyrrolidin-3-ol] | > 10000 |  | 172 |
| Cn1nnnc1Cn1nc2nc(C(C)(C)C)nc(N3CC[C@@](C)(O)C3)c2n1 [Example 130-b, (R)-1-[5-tert-Butyl-2-(1-methyl-1H-tetrazol-5-ylmethyl)-2H-[1,2,3]triazolo[4,5-d]pyrimidin-7-yl]-3-methyl-pyrrolidin-3-ol] | > 10000 |  | 798 |
| Cc1nonc1Cn1nc2nc(C(C)(C)C)nc(N3CC[C@](C)(O)C3)c2n1 [Example 131-a, (S)-1-[5-tert-Butyl-2-(4-methyl-furazan-3-ylmethyl)-2H-[1,2,3]triazolo[4,5-d]pyrimidin-7-yl]-3-methyl-pyrrolidin-3-ol] | > 10000 | 10.2 |  |
| Cc1nonc1Cn1nc2nc(C(C)(C)C)nc(N3CC[C@@](C)(O)C3)c2n1 [Example 131-b, (R)-1-[5-tert-Butyl-2-(4-methyl-furazan-3-ylmethyl)-2H-[1,2,3]triazolo[4,5-d]pyrimidin-7-yl]-3-methyl-pyrrolidin-3-ol] | > 10000 | 61.4 |  |
| CC(C)(C)c1nc(N2CC[C@](C)(O)C2)c2nn(CCC(F)(F)F)nc2n1 [Example 132-a, (S)-1-[5-tert-Butyl-2-(3,3,3-trifluoro-propyl)-2H-[1,2,3]triazolo[4,5-d]pyrimidin-7-yl]-3-methyl-pyrrolidin-3-ol] | > 10000 | 18.1 |  |
